Measured values taken from article PMC11510191, “Exploring Benzo[h]chromene Derivatives as Agents against Protozoal and Mycobacterial Infections” (Pharmaceuticals, 2024).
Read-outs that look alike come from different tables or passages of the source.

Key:
T. cruzi epimastigotes = experiment: Trypanocidal activity on T. cruzi epimastigotes (CL-B5 lacZ, CPRG); format: cell-based, Trypanosoma cruzi clone CL-B5; conditions: for Selectivity Index L929/ T. cruzi: SI = CC50 L929/IC50 parasites; for IC50: Trypanosoma cruzi, 72 h
Experimental: For in vitro studies of T. cruzi. the clone CL-B5 was used. Parasites were stably transfected with the Escherichia coli β-galactosidase gene (lacZ), provided by Facultad de Farmacia (Universidad Complutense de Madrid). Epimastigotes were grown at 28 °C in liver infusion tryptose broth (Difco, Detroit, MI, USA) with 10% fetal bovine serum (FBS) (Gibco, Carlsbad, CA, USA), penicillin (Ern S.A., Barcelona, Spain), and streptomycin (Reig Jofré S.A., Barcelona. Spain), as described previously, and harvested during the exponential growth phase. Briefly, the screening assay was performed in 96-well microplates (Sarstedt, Inc., Newton, NC, USA) with cultures that had not reached the stationary phase. Briefly, epimastigotes were seeded at 2 × 10^5 parasites/mL in 200 µL growth media. The plates were then incubated with the respective compounds at 28 °C for 72 h. Afterwards, 50 µL of CPRG solution was added, resulting in a final concentration of 200 µM. The plates were incubated at 37 °C for an additional 4 h and then read at 595 nm. Each concentration was tested in triplicate. […] These values were calculated from the sigmoidal dose–response curve adjustment using the statistical software program Graph-Pad Prims 3.0. Benznidazole was used as a reference drug.

[1] = Cytotoxicity on L929 fibroblasts (resazurin); conditions: mouse
[2] = test system: Leishmania infantum (L. i) promastigotes; experiment: Leishmanicidal activity on L. infantum promastigotes (resazurin); conditions: for IC50: Leishmania infantum, 48 h, read-out: Leishmanicidal Activity IC50—L. i
Experimental: (§1) The culture of L. braziliensis (MHOM/CO/88/UA301) and L. infantum (MCAN/ES/92/BCN83) was obtained from the Facultad de Farmacia, Universidad Complutense de Madrid, Spain.
(§2) The maintenance of the strains, the form of cultivation, and the isolation of shape promastigota followed the procedures described by Roldós et al. [8]. The promastigotes were grown at 22 °C in Schneider’s Drosophila medium supplemented with 20% FBS. The assay was performed using a modification of a previous method [47]. Promastigotes (2 × 10^6 parasites/well) were cultured in 96-well plastic plates. Compounds were dissolved in dimethylsulfoxide (DMSO). Different dilutions of the compounds up to a 200 µL final volume were added. After 48 h at 26 °C, 20 µL of 2 mM resazurin solution was added and the oxidation–reduction was quantified at 570 and 600 nm. The solution of resazurin was prepared at 2.5 mM in phosphate-buffered solution (PBS), pH 7.4, and filtered through 0.22 µM prior to use. All tests were carried out in triplicate. Resazurin sodium salt was obtained from Sigma–Aldrich (St. Louis, MO, USA) and stored at 4 °C protected from light. The efficacy of each compound was estimated by calculating the IC50 values.

[3] = test system: Leishmania brazilensis (L. b) promastigotes; experiment: Leishmanicidal activity on L. braziliensis promastigotes (resazurin); conditions: for IC50: Leishmania, 48 h, read-out: Leishmanicidal Activity IC50—L. b
Experimental: as §1, §2

[4] = epimastigotes, read-out: Trypanocidal Activity IC50 T. cruzi

Structure (SMILES) | Selectivity Index L929/ T. cruzi (T. cruzi epimastigotes) | IC50 (T. cruzi epimastigotes; [4]) [µM] | CC50 at 24 h [1] [µM] | IC50 [2] [µM] | IC50 [3] [µM] | IC50 (T. cruzi epimastigotes; read-out: Trypanocidal Activity IC50 T. cruzi, epimastigotes, 72 h) [µM] | Selectivity Index L929/ L. i ([2]; SI = CC50 L929/IC50 parasites) | Selectivity Index L929/ L. b ([3]; SI = CC50 L929/IC50 parasites)
COc1ccc(-n2cc(CCC(=O)Oc3c4c(c5ccccc5c3OC(=O)CCc3cn(-c5ccc(OC)cc5)nn3)OC(C)(C)C=C4)nn2)cc1 [Compound 2b] | >1 | 204 | > 256 | > 256 | > 256 | – | – | –
CC1(C)C=Cc2c(OC(=O)CCc3cn(-c4ccc(Cl)cc4)nn3)c(OC(=O)CCc3cn(-c4ccc(Cl)cc4)nn3)c3ccccc3c2O1 [Compound 2c] | – | > 256 | > 256 | > 256 | > 256 | – | – | –
CC1(C)C=Cc2c(OC(=O)CCc3cn(-c4cccc(Cl)c4)nn3)c(OC(=O)CCc3cn(-c4cccc(Cl)c4)nn3)c3ccccc3c2O1 [Compound 2g] | – | – | > 384 | > 256 | > 256 | > 256 | – | –
C#CCCCC(=O)Oc1c2c(c3ccccc3c1OC(=O)CCCC#C)OC(C)(C)C=C2 [Compound 1b] | 3 | 37.3 | 128 | 30.5 | 6.7 | – | 4 | 19
CC(=O)O[C@@H]1[C@@H](OC(C)=O)[C@H](OC(C)=O)CO[C@H]1n1cc(CCC(=O)Oc2c3c(c4ccccc4c2OC(=O)CCc2cn([C@@H]4OC[C@@H](OC(C)=O)[C@H](OC(C)=O)[C@H]4OC(C)=O)nn2)OC(C)(C)C=C3)nn1 [Compound 2e] | – | > 256 | > 256 | > 256 | > 256 | – | – | –
CC1(C)C=Cc2c(OC(=O)CCc3cn(Cc4ccc(Br)cc4)nn3)c(OC(=O)CCc3cn(Cc4ccc(Br)cc4)nn3)c3ccccc3c2O1 [Compound 2i] | – | > 256 | > 256 | > 256 | > 256 | – | – | –
O=C(Cn1ccnc1[N+](=O)[O-])NCc1ccccc1 [Benznidazole, reference compound] | 14.0 | 54.7 | 769 | – | – | – | – | –
Cc1ccc(-n2cc(CCCC(=O)Oc3c4c(c5ccccc5c3OC(=O)CCCc3cn(-c5ccc(C)cc5)nn3)OC(C)(C)C=C4)nn2)cc1 [Compound 3d] | – | > 256 | > 256 | > 256 | > 256 | – | – | –
Cc1ccc(-n2cc(CCC(=O)Oc3c4c(c5ccccc5c3OC(=O)CCc3cn(-c5ccc(C)cc5)nn3)OC(C)(C)C=C4)nn2)cc1 [Compound 2d] | – | > 256 | > 256 | > 256 | > 256 | – | – | –
CC1(C)C=Cc2c(OC(=O)CCc3cn(Cc4ccc([N+](=O)[O-])cc4)nn3)c(OC(=O)CCc3cn(Cc4ccc([N+](=O)[O-])cc4)nn3)c3ccccc3c2O1 [Compound 2h] | – | > 256 | > 256 | > 256 | > 256 | – | – | –
COc1ccc(-n2cc(CCCC(=O)Oc3c4c(c5ccccc5c3OC(=O)CCCc3cn(-c5ccc(OC)cc5)nn3)OC(C)(C)C=C4)nn2)cc1 [Compound 3b] | – | > 256 | > 256 | > 256 | > 256 | – | – | –
CC1(C)C=Cc2c(OC(=O)CCCc3cn(-c4cccc(Cl)c4)nn3)c(OC(=O)CCCc3cn(-c4cccc(Cl)c4)nn3)c3ccccc3c2O1 [Compound 3g] | >3 | 146 | > 384 | > 256 | > 256 | – | – | –
CC1(C)C=Cc2c(OC(=O)CCCc3cn(-c4ccccc4)nn3)c(OC(=O)CCCc3cn(-c4ccccc4)nn3)c3ccccc3c2O1 [Compound 3a] | – | > 256 | > 256 | > 256 | > 256 | – | – | –
CC1(C)C=Cc2c(OC(=O)CCc3cn(-c4ccccc4)nn3)c(OC(=O)CCc3cn(-c4ccccc4)nn3)c3ccccc3c2O1 [Compound 2a] | >4 | 68.7 | > 256 | > 256 | > 256 | – | – | –
CC1(C)C=Cc2c(OC(=O)CCCc3cn(-c4ccc(Cl)cc4)nn3)c(OC(=O)CCCc3cn(-c4ccc(Cl)cc4)nn3)c3ccccc3c2O1 [Compound 3c] | – | > 256 | > 256 | > 256 | > 256 | – | – | –
